Experiments:
[1] = system: CD1 mice treated with LPS/D-GalN; assay: Survival of mice with LPS/D-GalN induced acute liver failure; type: in vivo, mouse; conditions: 890 mg/kg IP 3 hours prior to LPS/D-GalN
Text: Six to eight week old CD1 mice are obtained from Charles River. Animals were housed in Wayne State University or University of Padova, Vallisneri Interdepartmental Complex animal quarters until the time of the experiment. Food was withdrawn the night before the day of the experiment. All experiments were approved by the Animal Investigation Committee of Wayne State University or by the Authority of the University of Padova and authorized by the Italian Ministry of Health.
Animals were divided into two groups. Group one animals consisted of both male and female mice injected with LPS and D-GalN to induce hepatic failure. Survival was monitored post LPS/D-GalN administration and the time of injection was considered to be zero hour (t=0). Group two animals consisted of mice injected with MSO three hours prior to LPS and D-GalN administration. […] […] For analysis of the effect of MSO treatment on the cell death pathway activated by the Fas ligand, mice were pre-treated with MSO as described above, and at time zero were injected with Jo2 antibody ([…]).
Animals were monitored continuously post LPS/D-GalN or Jo2 administration. […] The time of death was recorded as hours after LPS/D-GalN injection. Fisher's exact test was used to determine two-tailed p values for the statistical between the treated and untreated groups.

glutamine synthetase = biological target: T1, glutamine synthetase (Mus musculus, UniProt P15105); assay: Glutamine synthetase activity in liver extracts of treated mice; type: in vivo; conditions: 890 mg/kg IP 3 hours prior to LPS/D-GalN
T1 construct: liver homogenates were prepared from liver tissue excised and immediately homogenized; from tissue; host or cells: mouse liver homogenate supernatant
Description: Tissue and plasma were collected from male mice, which were divided into two groups. One group was injected with saline three hours prior to LPS/D-GalN injections. The second group was given MSO three hours prior to being injected with LPS/D-GalN. Control mice (t=0) were treated with MSO or saline for 3 hours and then euthanized (not exposed to LPS/D-GalN). After LPS/D-GalN injection at time zero, tissue and plasma samples were collected at one-hour time intervals from 1 to 5 hours.
To analyze enzyme activities liver homogenates were prepared from liver tissue excised and immediately homogenized in ice-cold buffer consisting of 250 mM sucrose, 10 mM Tris and 0.1 mM EGTA with protease inhibitor cocktail (Sigma #P8340). The homogenized tissue was centrifuged at 2375×g for 5 min. The tissue supernatant fraction was frozen on dry ice and stored at −80° C.
Glutamine synthetase was assayed as described by Meister, A. Glutamine synthetase from mammalian tissues. […] The reaction with the substrates glutamine and hydroxylamine was stopped using ferric chloride stop solution (0.37 M FeCl3, 0.67 M HCl, 0.20 M TCA) and the colorimetric product formed—γ-glutamyl hydroxamate—was measured at 535 nm. The absorbance values were converted to activities by comparison to a standard curve of pure glutamyl hydroxamate (a generous gift from Arthur J. Cooper, Department of Biochemistry and Molecular Biology, New York Medical College).

MLP 29 cells = assay: Flow cytometry of apoptosis induced by TNF-α plus actinomycin D; type: cell-based, mouse; conditions: 9 mM, one hour preincubation, then TNF-α plus actinomycin D for 10 hours
Description: Output of multiparametric FACS analyses. Mouse liver progenitor cells, MLP 29, are incubated for one hour with either no addition (first lane, FIG. 3C(a)), 9 mM MSO (second lane, FIG. 3C(b)), or 9 mM BSO (third lane, FIG. 3C(c)), then exposed for 10 hours to either no addition—(BAS, first column), TNF-α plus actinomycin D (second column), or actinomycin D alone (third column). Viable cells (V) are delimited by the quadrant. Apoptotic cells display mitochondrial depolarization (reduced TMRM staining) and/or expose phosphatidylserine on their surface (increased Annexin V-FITC staining). Propidium iodide-positive, i.e. dead cells (PI), are evaluated on a PI vs TMRM diagram (not shown); these cells are excluded from the reported plots, but the percentage of propidium iodide positive (i.e. dead) cells is shown in each box (PI), as is the percentage of viable cells (V);
Samples were analyzed on a FACSCalibur flow cytometer (Becton Dickinson, San Diego, Calif.). Data acquisition was performed using CellQuest software and data analysis with WinMD1 software. Each experiment was repeated at least four times.

GGCS = biological target: T2, GGCS (Homo sapiens, UniProt P48506); conditions: known from the literature; cited from earlier work
T2 sequence (P48506 1-637): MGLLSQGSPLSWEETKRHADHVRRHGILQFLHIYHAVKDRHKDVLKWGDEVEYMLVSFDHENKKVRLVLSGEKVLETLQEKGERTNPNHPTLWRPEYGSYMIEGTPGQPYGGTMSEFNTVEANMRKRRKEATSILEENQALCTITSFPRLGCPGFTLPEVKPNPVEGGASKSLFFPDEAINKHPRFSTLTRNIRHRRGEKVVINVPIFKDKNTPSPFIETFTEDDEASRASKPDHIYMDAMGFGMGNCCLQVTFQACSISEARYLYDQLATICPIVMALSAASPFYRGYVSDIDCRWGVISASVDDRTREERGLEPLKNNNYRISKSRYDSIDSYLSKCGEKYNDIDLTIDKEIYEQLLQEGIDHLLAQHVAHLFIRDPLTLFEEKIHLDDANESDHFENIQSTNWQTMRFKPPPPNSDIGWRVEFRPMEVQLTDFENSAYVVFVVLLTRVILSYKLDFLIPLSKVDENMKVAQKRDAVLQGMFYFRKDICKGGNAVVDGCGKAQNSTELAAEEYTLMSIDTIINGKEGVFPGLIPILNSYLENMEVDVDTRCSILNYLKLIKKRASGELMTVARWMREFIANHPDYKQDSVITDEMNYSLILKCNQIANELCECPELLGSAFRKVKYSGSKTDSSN

T1 sequence (P15105 2-373 limits assumed): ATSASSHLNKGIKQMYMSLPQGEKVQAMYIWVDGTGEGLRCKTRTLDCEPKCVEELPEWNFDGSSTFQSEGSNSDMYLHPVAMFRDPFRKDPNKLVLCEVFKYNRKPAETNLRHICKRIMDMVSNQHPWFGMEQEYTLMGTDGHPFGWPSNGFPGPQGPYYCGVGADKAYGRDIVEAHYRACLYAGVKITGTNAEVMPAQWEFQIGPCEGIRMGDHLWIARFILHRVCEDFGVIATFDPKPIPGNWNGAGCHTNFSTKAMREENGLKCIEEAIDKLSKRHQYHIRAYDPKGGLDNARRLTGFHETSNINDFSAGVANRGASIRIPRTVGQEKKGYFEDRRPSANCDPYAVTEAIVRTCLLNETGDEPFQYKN

CCCCS(=N)(=O)CCC(N)C(=O)O (centres unmarked) [BSO, buthionine sulfoximine, reference compound]
effect on survival of mice treated with LPS/D-GalN [1]: no effect | survival ([1]; 3 out of 20 treated mice survived): 15% | effect on glutamine synthetase activities (glutamine synthetase): no effect | rescue of cells from apoptosis induced by TNF-α (MLP 29 cells): neither MSO nor BSO could rescue cells | inhibition of GGCS, effectiveness relative to MSO (GGCS): 100 times

Reference: US9119821B2, “Use of methionine sulfoximine to treat acute liver failure and other diseases caused by an inflammatory cytokine response” (priority 2010, dated 2015)
